Data reported in PubChem BioAssay AID2060609 (Molecular Pharmacology Branch, DTP, NCI, 2025).
pIC50: −log10 of the molar value. Each block holds one molecule with its values, some of them ahead of it.

System: 855422-203-R-J1-PDC complex spheroids, viability
Assay: Anticancer human tumor 855422-203-R-J1-PDC patient-derived bladder carcinoma cell line growth inhibition [CLK]
Conditions: for pIC50: curve of first compound; for viability, T/C: stronger effect = lower value
Summary of the method: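 Multi-cell-type spheroids combined patient-derived tumor cells with HUVEC endothelial cells and human mesenchymal stem cells. Paired agents were dosed in half-log steps down from about clinical Cmax, or from 10 microM where Cmax was unknown.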

[1] = second compound 0.0316 µM, first compound 0.0316 µM
[2] = second compound 0.0316 µM, first compound 0.1 µM
[3] = second compound 0.0316 µM, first compound 0.316 µM
[4] = second compound 0.0316 µM, first compound 1 µM
[5] = second compound 0.1 µM, first compound 0.0316 µM
[6] = second compound 0.1 µM, first compound 0.1 µM
[7] = second compound 0.1 µM, first compound 0.316 µM
[8] = second compound 0.1 µM, first compound 1 µM
[9] = second compound 0.316 µM, first compound 0.0316 µM
[10] = second compound 0.316 µM, first compound 0.1 µM
[11] = second compound 0.316 µM, first compound 0.316 µM
[12] = second compound 0.316 µM, first compound 1 µM
[13] = second compound 1 µM, first compound 0.0316 µM
[14] = second compound 1 µM, first compound 0.1 µM
[15] = second compound 1 µM, first compound 0.316 µM
[16] = second compound 1 µM, first compound 1 µM
[17] = second compound 3.16 µM, first compound 0.0316 µM
[18] = second compound 3.16 µM, first compound 0.1 µM
[19] = second compound 3.16 µM, first compound 0.316 µM
[20] = second compound 3.16 µM, first compound 1 µM
[21] = second compound 10 µM, first compound 0.0316 µM
[22] = second compound 10 µM, first compound 0.1 µM
[23] = second compound 10 µM, first compound 0.316 µM
[24] = second compound 10 µM, first compound 1 µM
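Also: spheroids exposed to drugs for seven days before readout.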
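For viability, T/C in this document: 100% = DMSO vehicle control wells.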

pIC50 (second compound 0.0316 µM): < 6.52
pIC50 (second compound 0.1 µM): 8.93
pIC50 (second compound 0.316 µM): > 9.02
pIC50 (second compound 1 µM): > 9.02
pIC50 (second compound 3.16 µM): > 9.02
pIC50 (second compound 10 µM): > 9.02
Structure (SMILES): C=CC(=O)Nc1cc(Nc2nccc(-c3cn(C)c4ccccc34)n2)c(OC)cc1N(C)CCN(C)C + CNC(=O)c1ccc(Nc2nc(OC3CCCC3)c3c(-c4ccc5nc(C)oc5c4)c[nH]c3n2)c(OC)c1
viability, T/C (second compound 0.0316 µM, first compound 0.000949 µM): 108%
viability, T/C (second compound 0.0316 µM, first compound 0.003 µM): 112%
viability, T/C (second compound 0.0316 µM, first compound 0.00949 µM): 109%
viability, T/C (second compound 0.0316 µM, first compound 0.03 µM): 97.1%
viability, T/C (second compound 0.0316 µM, first compound 0.0949 µM): 98.8%
viability, T/C (second compound 0.0316 µM, first compound 0.3 µM): 76.3%
viability, T/C (second compound 0.1 µM, first compound 0.000949 µM): 53.6%
viability, T/C (second compound 0.1 µM, first compound 0.003 µM): 33.9%
viability, T/C (second compound 0.1 µM, first compound 0.00949 µM): 29.3%
viability, T/C (second compound 0.1 µM, first compound 0.03 µM): 29.2%
viability, T/C (second compound 0.1 µM, first compound 0.0949 µM): 28.6%
viability, T/C (second compound 0.1 µM, first compound 0.3 µM): 22.4%
viability, T/C (second compound 0.316 µM, first compound 0.000949 µM): 21.3%
viability, T/C (second compound 0.316 µM, first compound 0.003 µM): 22.4%
viability, T/C (second compound 0.316 µM, first compound 0.00949 µM): 19.1%
viability, T/C (second compound 0.316 µM, first compound 0.03 µM): 21.8%
viability, T/C (second compound 0.316 µM, first compound 0.0949 µM): 24%
viability, T/C (second compound 0.316 µM, first compound 0.3 µM): 20.1%
viability, T/C (second compound 1 µM, first compound 0.000949 µM): 19.4%
viability, T/C (second compound 1 µM, first compound 0.003 µM): 21%
viability, T/C (second compound 1 µM, first compound 0.00949 µM): 27.3%
viability, T/C (second compound 1 µM, first compound 0.03 µM): 23.5%
viability, T/C (second compound 1 µM, first compound 0.0949 µM): 22%
viability, T/C (second compound 1 µM, first compound 0.3 µM): 16.2%
viability, T/C (second compound 3.16 µM, first compound 0.000949 µM): 25.8%
viability, T/C (second compound 3.16 µM, first compound 0.003 µM): 23.1%
viability, T/C (second compound 3.16 µM, first compound 0.00949 µM): 20.8%
viability, T/C (second compound 3.16 µM, first compound 0.03 µM): 21.9%
viability, T/C (second compound 3.16 µM, first compound 0.0949 µM): 21.9%
viability, T/C (second compound 3.16 µM, first compound 0.3 µM): 16.5%
viability, T/C (second compound 10 µM, first compound 0.000949 µM): 19.7%
viability, T/C (second compound 10 µM, first compound 0.003 µM): 21.6%
viability, T/C (second compound 10 µM, first compound 0.00949 µM): 18.3%
viability, T/C (second compound 10 µM, first compound 0.03 µM): 19.1%
viability, T/C (second compound 10 µM, first compound 0.0949 µM): 23.3%
viability, T/C (second compound 10 µM, first compound 0.3 µM): 21.9%

pIC50 (second compound 0.0316 µM): < 6.00
pIC50 (second compound 0.1 µM): 8.19
pIC50 (second compound 0.316 µM): > 8.50
pIC50 (second compound 1 µM): > 8.50
pIC50 (second compound 3.16 µM): > 8.50
pIC50 (second compound 10 µM): > 8.50
Structure (SMILES): CCN1CCN(Cc2ccc(Nc3ncc(F)c(-c4cc(F)c5nc(C)n(C(C)C)c5c4)n3)nc2)CC1 + CNC(=O)c1ccc(Nc2nc(OC3CCCC3)c3c(-c4ccc5nc(C)oc5c4)c[nH]c3n2)c(OC)c1
viability, T/C (second compound 0.0316 µM, first compound 0.00316 µM): 88%
viability, T/C (second compound 0.0316 µM, first compound 0.01 µM): 90.2%
viability, T/C [1]: 74.8%
viability, T/C [2]: 56.8%
viability, T/C [3]: 56.4%
viability, T/C [4]: 46.2%
viability, T/C (second compound 0.1 µM, first compound 0.00316 µM): 59.3%
viability, T/C (second compound 0.1 µM, first compound 0.01 µM): 48%
viability, T/C [5]: 31.6%
viability, T/C [6]: 33.7%
viability, T/C [7]: 31.8%
viability, T/C [8]: 37.3%
viability, T/C (second compound 0.316 µM, first compound 0.00316 µM): 23.3%
viability, T/C (second compound 0.316 µM, first compound 0.01 µM): 27.7%
viability, T/C [9]: 25.9%
viability, T/C [10]: 20.9%
viability, T/C [11]: 28.7%
viability, T/C [12]: 30.9%
viability, T/C (second compound 1 µM, first compound 0.00316 µM): 19.8%
viability, T/C (second compound 1 µM, first compound 0.01 µM): 23.9%
viability, T/C [13]: 18%
viability, T/C [14]: 22.9%
viability, T/C [15]: 22.2%
viability, T/C [16]: 23.9%
viability, T/C (second compound 3.16 µM, first compound 0.00316 µM): 18.2%
viability, T/C (second compound 3.16 µM, first compound 0.01 µM): 23.4%
viability, T/C [17]: 19.8%
viability, T/C [18]: 18.6%
viability, T/C [19]: 26.9%
viability, T/C [20]: 22.7%
viability, T/C (second compound 10 µM, first compound 0.00316 µM): 18.2%
viability, T/C (second compound 10 µM, first compound 0.01 µM): 22.1%
viability, T/C [21]: 22.3%
viability, T/C [22]: 24%
viability, T/C [23]: 18.5%
viability, T/C [24]: 20%

pIC50 (second compound 0.0316 µM): 5.95
pIC50 (second compound 0.1 µM): > 7.50
pIC50 (second compound 0.316 µM): > 7.50
pIC50 (second compound 1 µM): > 7.50
pIC50 (second compound 3.16 µM): > 7.50
pIC50 (second compound 10 µM): > 7.50
Structure (SMILES): Nc1ccccc1NC(=O)c1ccc(CNC(=O)OCc2cccnc2)cc1 + CNC(=O)c1ccc(Nc2nc(OC3CCCC3)c3c(-c4ccc5nc(C)oc5c4)c[nH]c3n2)c(OC)c1
viability, T/C [1]: 77.8%
viability, T/C [2]: 81.3%
viability, T/C [3]: 79.9%
viability, T/C [4]: 49.4%
viability, T/C (second compound 0.0316 µM, first compound 3.16 µM): 22.4%
viability, T/C (second compound 0.0316 µM, first compound 10 µM): 1.4%
viability, T/C [5]: 46.5%
viability, T/C [6]: 43.9%
viability, T/C [7]: 44.9%
viability, T/C [8]: 27.7%
viability, T/C (second compound 0.1 µM, first compound 3.16 µM): 21.1%
viability, T/C (second compound 0.1 µM, first compound 10 µM): 1.14%
viability, T/C [9]: 20.8%
viability, T/C [10]: 16.2%
viability, T/C [11]: 16.9%
viability, T/C [12]: 18.2%
viability, T/C (second compound 0.316 µM, first compound 3.16 µM): 15.3%
viability, T/C (second compound 0.316 µM, first compound 10 µM): 0.51%
viability, T/C [13]: 18.5%
viability, T/C [14]: 17.9%
viability, T/C [15]: 14.9%
viability, T/C [16]: 13.2%
viability, T/C (second compound 1 µM, first compound 3.16 µM): 10.4%
viability, T/C (second compound 1 µM, first compound 10 µM): 0.17%
viability, T/C [17]: 17.5%
viability, T/C [18]: 18.6%
viability, T/C [19]: 12%
viability, T/C [20]: 15.3%
viability, T/C (second compound 3.16 µM, first compound 3.16 µM): 7.63%
viability, T/C (second compound 3.16 µM, first compound 10 µM): 0.29%
viability, T/C [21]: 19.9%
viability, T/C [22]: 13.6%
viability, T/C [23]: 16.6%
viability, T/C [24]: 12.1%
viability, T/C (second compound 10 µM, first compound 3.16 µM): 8.45%
viability, T/C (second compound 10 µM, first compound 10 µM): 0.69%
